Measurements reported in patent publication US11078202B2, “β-lactamase inhibitor and use thereof” (priority 2018, dated 2021).
Where a name gives a salt, the structure may show the parent alone.

Columns and labels:
Type in all cases: cell-based
[1] = system: Klebsiella pneumoniae XNWB 0002; assay: MIC assay of test compounds combined with ceftazidime (8 μg/mL); conditions: ceftazidime 8 μg/mL fixed
Method: (§1) The bacterial strains used for the minimum inhibitory concentration (MIC) test were frozen in a −80° C. ULT freezer and thawed 2 days before use. A small amount of frozen bacterial strains were scraped using a sterile inoculating loop, streaked onto a TSA solid culture dish for inoculation, and then cultured for 20-24 h at 35±2° C. in a normal atmospheric environment. 5-10 colonies with similar morphology were picked from the culture dish using a sterile inoculating loop and then re-streaked onto a suitable solid culture dish. Then the dish was placed into a normal incubator for culture for 20-24 h at 35±2° C. 5-10 single bacterial colonies were picked from the solid culture dish, resuspended in 500 μL of 0.9% NaCl, and adjusted to an OD600 of 0.1-0.15 with a spectrophotometer. The bacteria were then diluted 300-fold with 1.1×CAMHB. […] Dilution of test compounds: […] 2 μL of each compound in the dilution master plate of the test compounds was transferred to the corresponding well of the assay plates. In the mean time, 2 μL of 100% DMSO was transferred to the compound-free wells (GC and SC wells). (1) 8 μL of imipenem in the additive plate of imipenem was transferred to the corresponding wells of the assay plates; (2) 8 μL of ceftazidime in the additive plate of ceftazidime was transferred to the corresponding wells of the assay plates; (3) 8 μL of ampicillin in the additive plate of ampicillin was transferred to the corresponding wells of the assay plates. 90 μL of corresponding bacterial inocula were added to wells (except for SC wells) of the assay plates. After addition, the 6 assay plates were covered by sterile covers. The mixtures in the assay plates were centrifuged by a centrifuge at 1000 rpm for 30 s, and mixed uniformly by oscillating with a microplate oscillator at 800 rpm for 1 min, and then cultured in a common incubator for 16-20 h at 35±2° C. The minimum inhibitory concentration of each compound was recorded by reference to guidelines from the Clinical and Laboratory Standards Institute. […] The effect of the test compounds in combination with imipenem, ceftazidime, and ampicillin was also tested. […] The bacterial inocula in the assay plates were resuscitated from TSA and diluted in CAMHB, while growth controls (GC wells) and sterile controls (SC wells) were set up in the assay plates. The minimum inhibitory concentration of each compound combination against different bacteria was observed and recorded after the assay plates were incubated in a common incubator at 35±2° C. for 16-20 h, and the results are shown in Tables 1-3.

[2] = system: Klebsiella pneumoniae XNWB 0005; assay: as above; conditions: ceftazidime 8 μg/mL fixed
Method: as §1

[3] = system: Klebsiella pneumoniae XNWB 0001; assay: as above; conditions: ceftazidime 8 μg/mL fixed
Method: as §1

[4] = system: Klebsiella pneumoniae XNWB 0004; assay: as above; conditions: ceftazidime 8 μg/mL fixed
Method: as §1

[5] = system: Pseudomonas aeruginosa XNWB 0008; assay: as above; conditions: ceftazidime 8 μg/mL fixed
Method: as §1

[6] = system: Klebsiella pneumoniae XNWB 0003; assay: as above; conditions: ceftazidime 8 μg/mL fixed
Method: as §1

[7] = system: Acinetobacter baumannii XNWB 0007; assay: as above; conditions: ceftazidime 8 μg/mL fixed
Method: as §1

[8] = system: Klebsiella pneumoniae XNWB 0006; assay: as above; conditions: ceftazidime 8 μg/mL fixed
Method: as §1

[9] = system: Klebsiella pneumoniae XNWB 0002; assay: MIC assay of test compounds combined with imipenem (4 μg/mL); conditions: imipenem 4 μg/mL fixed
Method: as §1

[10] = system: Klebsiella pneumoniae XNWB 0005; assay: as above; conditions: imipenem 4 μg/mL fixed
Method: as §1

[11] = system: Klebsiella pneumoniae XNWB 0001; assay: as above; conditions: imipenem 4 μg/mL fixed
Method: as §1

[12] = system: Klebsiella pneumoniae XNWB 0004; assay: as above; conditions: imipenem 4 μg/mL fixed
Method: as §1

[13] = system: Pseudomonas aeruginosa XNWB 0008; assay: as above; conditions: imipenem 4 μg/mL fixed
Method: as §1

[14] = system: Klebsiella pneumoniae XNWB 0003; assay: as above; conditions: imipenem 4 μg/mL fixed
Method: as §1

[15] = system: Acinetobacter baumannii XNWB 0007; assay: as above; conditions: imipenem 4 μg/mL fixed
Method: as §1

[16] = system: Klebsiella pneumoniae XNWB 0006; assay: as above; conditions: imipenem 4 μg/mL fixed
Method: as §1

Structure (SMILES)	The minimum concentration of test compounds combined with ceftazidime (8 μg/mL) for bacteriostasis [1]	The minimum concentration of test compounds combined with ceftazidime (8 μg/mL) for bacteriostasis [2]	The minimum concentration of test compounds combined with ceftazidime (8 μg/mL) for bacteriostasis [3]	The minimum concentration of test compounds combined with ceftazidime (8 μg/mL) for bacteriostasis [4]	The minimum concentration of test compounds combined with ceftazidime (8 μg/mL) for bacteriostasis [5]	The minimum concentration of test compounds combined with ceftazidime (8 μg/mL) for bacteriostasis [6]	The minimum concentration of test compounds combined with ceftazidime (8 μg/mL) for bacteriostasis [7]	The minimum concentration of test compounds combined with ceftazidime (8 μg/mL) for bacteriostasis [8]	The minimum concentration of test compounds combined with imipenem (4 μg/mL) for bacteriostasis [9]	The minimum concentration of test compounds combined with imipenem (4 μg/mL) for bacteriostasis [10]	The minimum concentration of test compounds combined with imipenem (4 μg/mL) for bacteriostasis [11]	The minimum concentration of test compounds combined with imipenem (4 μg/mL) for bacteriostasis [12]	The minimum concentration of test compounds combined with imipenem (4 μg/mL) for bacteriostasis [13]	The minimum concentration of test compounds combined with imipenem (4 μg/mL) for bacteriostasis [14]	The minimum concentration of test compounds combined with imipenem (4 μg/mL) for bacteriostasis [15]	The minimum concentration of test compounds combined with imipenem (4 μg/mL) for bacteriostasis [16]
O=C1N2C[C@H](N1OS(=O)(=O)O)C1(CC1)C[C@H]2c1cc(CC2CNC2)on1 [Example 49, (1R,4S)-4-(5-(azetidin-3-ylmethyl)isoxazol-3-yl)-6-oxo-5,7-diazaspiro[bicycle[3.2.1]octane-2,1′-cyclopropan]-7-yl sulfate]	A (A: <8 μg/mL)	A (A: <8 μg/mL)	A (A: <8 μg/mL)	B (B: 8-16 μg/mL)	B (B: 8-16 μg/mL)	A (A: <8 μg/mL)	C (C: 16-128 μg/mL)	A (A: <8 μg/mL)	A (A: <8 μg/mL)	A (A: <8 μg/mL)	A (A: <8 μg/mL)	A (A: <8 μg/mL)	A (A: <8 μg/mL)	A (A: <8 μg/mL)	C (C: 16-128 μg/mL)	A (A: <8 μg/mL)
CN(CCc1cc([C@@H]2CC3(CC3)[C@@H]3CN2C(=O)N3OS(=O)(=O)O)no1)C(=N)N [Example 37, (1R,4S)-4-(5-(2-(1-methylguanidino)ethyl)isoxazol-3-yl)-6-oxo-5,7-diazaspiro[bicycle [3.2.1]octane-2,1′-cyclopropan]-7-yl sulfate]	A (A: <8 μg/mL)	A (A: <8 μg/mL)	A (A: <8 μg/mL)	B (B: 8-16 μg/mL)	C (C: 16-128 μg/mL)	B (B: 8-16 μg/mL)	C (C: 16-128 μg/mL)	A (A: <8 μg/mL)	A (A: <8 μg/mL)	A (A: <8 μg/mL)	A (A: <8 μg/mL)	A (A: <8 μg/mL)	B (B: 8-16 μg/mL)	A (A: <8 μg/mL)	C (C: 16-128 μg/mL)	A (A: <8 μg/mL)
O=C(NC1CNC1)[C@@H]1CC2(CC2)[C@@H]2CN1C(=O)N2OS(=O)(=O)O [Example 29, (1R,4S)-4-(azetidin-3-ylaminoformyl)-6-oxo-5,7-diazaspiro[bicyclo[3.2.1]octane-2,1′-cyclopropan]-7-yl sulfate]	A (A: <8 μg/mL)	A (A: <8 μg/mL)	A (A: <8 μg/mL)	A (A: <8 μg/mL)	B (B: 8-16 μg/mL)	A (A: <8 μg/mL)	C (C: 16-128 μg/mL)	A (A: <8 μg/mL)	A (A: <8 μg/mL)	A (A: <8 μg/mL)	A (A: <8 μg/mL)	A (A: <8 μg/mL)	A (A: <8 μg/mL)	A (A: <8 μg/mL)	C (C: 16-128 μg/mL)	A (A: <8 μg/mL)
N=C(N)NCCNCCc1cc([C@@H]2CC3(CC3)[C@@H]3CN2C(=O)N3OS(=O)(=O)O)no1 [Example 53, (1R,4S)-4-(5-(2-((2-guanidinoethyl)amino)ethyl)isoxazol-3-yl)-6-oxo-5,7-diazaspiro [bicyclo[3.2.1]octane-2,1′-cyclopropan]-7-yl sulfate]	A (A: <8 μg/mL)	A (A: <8 μg/mL)	A (A: <8 μg/mL)	B (B: 8-16 μg/mL)	B (B: 8-16 μg/mL)	A (A: <8 μg/mL)	C (C: 16-128 μg/mL)	A (A: <8 μg/mL)	A (A: <8 μg/mL)	A (A: <8 μg/mL)	A (A: <8 μg/mL)	A (A: <8 μg/mL)	A (A: <8 μg/mL)	A (A: <8 μg/mL)	C (C: 16-128 μg/mL)	A (A: <8 μg/mL)
